Test results from PMC11206203, “Peptide macrocyclisation via intramolecular interception of visible-light-mediated desulfurisation” (Chemical Science, 2024).

Experiments:
[1] = Same desulfurative C-C cyclisation as series A (TCEP, Ir photocatalyst, blue light) with N-terminal Cys and C-terminal allylglycine (reversed pentapeptides); settings: the molecule shown is the open-chain precursor; 17-membered ring; 6 M Gdn.HCl, 0.1 M Na2HPO4 pH 7.5-8.0 / MeCN 9:1; 0.5 mM; 25.0 °C
[2] = C(sp3)-C(sp3) bond formation by visible-light-mediated Cys desulfurisation: alanyl radical adds to terminal alkene of allylglycine (or O-allyl Ser, pentenylGly, acrylamide); TCEP 50 eq (25 mM), (Ir[dF(CF3)ppy]2(dtbpy))PF6 1 mol%, 450 nm blue LED; unprotected peptides; settings: 6 M Gdn.HCl, 0.1 M Na2HPO4 pH 7.5-8.0 / MeCN 9:1, 0.5 mM, 25.0 °C

## C=CC[C@H](NC(=O)[C@H](CCC(=O)O)NC(=O)[C@H](Cc1ccccc1)NC(=O)[C@H](C)NC(=O)[C@H](CS)NC(C)=O)C(N)=O [Ac-Cys-Ala-Phe-Glu-(allylGly)-NH2]
[1]
  ring closure, conversion by HPLC: 0%

## C=CC[C@H](NC(=O)[C@H](CCCNC(=N)N)NC(=O)[C@H](Cc1c[nH]c2ccccc12)NC(=O)[C@@H](NC(=O)[C@H](CS)NC(C)=O)[C@@H](C)CC)C(N)=O [Ac-Cys-Ile-Trp-Arg-(allylGly)-NH2]
[1]
  ring closure, conversion by HPLC: 7%

## C=CC[C@H](NC(=O)[C@H](CCSC)NC(=O)[C@H](Cc1ccc(O)cc1)NC(=O)[C@H](CC(C)C)NC(=O)[C@H](CS)NC(C)=O)C(N)=O [Ac-Cys-Leu-Tyr-Met-(allylGly)-NH2]
[1]
  ring closure, conversion by HPLC: 21%

## C=CC[C@H](NC(=O)[C@H](CCCCN)NC(=O)[C@@H]1CCCN1C(=O)[C@@H](NC(=O)[C@H](CS)NC(C)=O)[C@@H](C)O)C(N)=O [Ac-Cys-Thr-Pro-Lys-(allylGly)-NH2]
[1]
  ring closure, conversion by HPLC: 0%

## C=CC[C@H](NC(=O)[C@H](CCC(N)=O)NC(=O)[C@H](Cc1c[nH]cn1)NC(=O)[C@@H](NC(=O)[C@H](CS)NC(C)=O)C(C)C)C(N)=O [Ac-Cys-Val-His-Gln-(allylGly)-NH2]
[1]
  ring closure, conversion by HPLC: 28%

## C[C@@H]1NC(=O)[C@H](Cc2ccccc2)NC(=O)[C@H](C)NC(=O)[C@@H](N)CCCC[C@@H](C(N)=O)NC1=O [H-(allylGly)-Ala-Phe-Ala-Cys-NH2]
[2]; from C=CC[C@H](N)C(=O)N[C@@H](C)C(=O)N[C@@H](Cc1ccccc1)C(=O)N[C@@H](C)C(=O)N[C@@H](CS)C(N)=O, 17-membered ring, 0.75 h
  ring closure, isolated yield: 79%

## CSCC[C@@H]1NC(=O)[C@@H]2CCCN2C(=O)[C@H](CCCNC(=N)N)NC(=O)[C@@H](N)CCCC[C@@H](C(N)=O)NC(=O)[C@H](Cc2c[nH]cn2)NC1=O [H-(allylGly)-Arg-Pro-Met-His-Cys-NH2]
[2]; from C=CC[C@H](N)C(=O)N[C@@H](CCCNC(=N)N)C(=O)N1CCC[C@H]1C(=O)N[C@@H](CCSC)C(=O)N[C@@H](Cc1c[nH]cn1)C(=O)N[C@@H](CS)C(N)=O, 20-membered ring
  ring closure, isolated yield: 0%

## NCCCC[C@@H]1NC(=O)[C@H](CC(=O)O)NC(=O)[C@@H](N)CCCC[C@@H](C(N)=O)NC(=O)[C@H](CCC(=O)O)NC(=O)[C@H](Cc2c[nH]cn2)NC(=O)[C@H](CC(N)=O)NC(=O)[C@H](Cc2ccccc2)NC1=O [H-(allylGly)-Asp-Lys-Phe-Asn-His-Glu-Cys-NH2]
[2]; from C=CC[C@H](N)C(=O)N[C@@H](CC(=O)O)C(=O)N[C@@H](CCCCN)C(=O)N[C@@H](Cc1ccccc1)C(=O)N[C@@H](CC(N)=O)C(=O)N[C@@H](Cc1c[nH]cn1)C(=O)N[C@@H](CCC(=O)O)C(=O)N[C@@H](CS)C(N)=O, 26-membered ring
  ring closure, isolated yield: 70%

## CC(C)C[C@@H]1NC(=O)[C@H](CC(=O)O)NC(=O)[C@H](CCC(=O)O)NC(=O)[C@@H](N)CCCC[C@@H](C(N)=O)NC(=O)[C@H](CCC(N)=O)NC(=O)[C@H](Cc2ccc(O)cc2)NC(=O)[C@H](Cc2ccccc2)NC1=O [H-(allylGly)-Glu-Asp-Leu-Phe-Tyr-Gln-Cys-NH2]
[2]; from C=CC[C@H](N)C(=O)N[C@@H](CCC(=O)O)C(=O)N[C@@H](CC(=O)O)C(=O)N[C@@H](CC(C)C)C(=O)N[C@@H](Cc1ccccc1)C(=O)N[C@@H](Cc1ccc(O)cc1)C(=O)N[C@@H](CCC(N)=O)C(=O)N[C@@H](CS)C(N)=O, 26-membered ring
  ring closure, isolated yield: 65%

## CSCC[C@@H]1NC(=O)[C@H](Cc2ccc(O)cc2)NC(=O)[C@H](CC(C)C)NC(=O)[C@@H](N)CCCC[C@@H](C(N)=O)NC1=O [H-(allylGly)-Leu-Tyr-Met-Cys-NH2]
[2]; from C=CC[C@H](N)C(=O)N[C@@H](CC(C)C)C(=O)N[C@@H](Cc1ccc(O)cc1)C(=O)N[C@@H](CCSC)C(=O)N[C@@H](CS)C(N)=O, 17-membered ring
  ring closure, isolated yield: 54%

## CSCC[C@@H]1NC(=O)[C@@H](N)CCCC[C@@H](C(N)=O)NC(=O)[C@H](CCCCN)NC(=O)[C@H](CCC(=O)O)NC(=O)[C@H](CC(C)C)NC(=O)[C@H](C)NC1=O [H-(allylGly)-Met-Ala-Leu-Glu-Lys-Cys-NH2]
[2]; from C=CC[C@H](N)C(=O)N[C@@H](CCSC)C(=O)N[C@@H](C)C(=O)N[C@@H](CC(C)C)C(=O)N[C@@H](CCC(=O)O)C(=O)N[C@@H](CCCCN)C(=O)N[C@@H](CS)C(N)=O, 23-membered ring
  ring closure, isolated yield: 44%

## CSCC[C@@H]1NC(=O)[C@@H](N)CCCC[C@@H](C(N)=O)NC(=O)[C@H](CCCNC(=N)N)NC(=O)[C@H](CC(C)C)NC(=O)[C@H](Cc2c[nH]c3ccccc23)NC(=O)[C@@H]2CCCN2C1=O [H-(allylGly)-Met-Pro-Trp-Leu-Arg-Cys-NH2]
[2]; from C=CC[C@H](N)C(=O)N[C@@H](CCSC)C(=O)N1CCC[C@H]1C(=O)N[C@@H](Cc1c[nH]c2ccccc12)C(=O)N[C@@H](CC(C)C)C(=O)N[C@@H](CCCNC(=N)N)C(=O)N[C@@H](CS)C(N)=O, 23-membered ring
  ring closure, isolated yield: 65%

## CC[C@H](C)[C@@H]1NC(=O)[C@H](Cc2ccc(O)cc2)NC(=O)[C@@H](N)CCCC[C@@H](C(=O)N2CCC[C@H]2C(=O)N[C@@H](CC(C)C)C(=O)NCC(N)=O)NC(=O)[C@H](CC(N)=O)NC(=O)[C@H](CCC(N)=O)NC1=O [H-(allylGly)-Tyr-Ile-Gln-Asn-Cys-Pro-Leu-Gly-NH2]
[2]; from C=CC[C@H](N)C(=O)N[C@@H](Cc1ccc(O)cc1)C(=O)N[C@H](C(=O)N[C@@H](CCC(N)=O)C(=O)N[C@@H](CC(N)=O)C(=O)N[C@@H](CS)C(=O)N1CCC[C@H]1C(=O)N[C@@H](CC(C)C)C(=O)NCC(N)=O)[C@@H](C)CC, 20-membered ring
  ring closure, isolated yield: 0%

## NC(=O)CC[C@@H]1NC(=O)[C@H](Cc2ccc(O)cc2)NC(=O)[C@H](Cc2ccccc2)NC(=O)[C@@H](NC(=O)[C@@H](N)CC(=O)O)CCCC[C@@H](C(N)=O)NC1=O [H-Asp-(allylGly)-Phe-Tyr-Gln-Cys-NH2]
[2]; from C=CC[C@H](NC(=O)[C@@H](N)CC(=O)O)C(=O)N[C@@H](Cc1ccccc1)C(=O)N[C@@H](Cc1ccc(O)cc1)C(=O)N[C@@H](CCC(N)=O)C(=O)N[C@@H](CS)C(N)=O, 17-membered ring
  ring closure, isolated yield: 82%

## C=CC[C@H](NC(=O)[C@H](CCC(=O)O)NC(=O)[C@H](Cc1ccccc1)NC(=O)[C@H](C)NC(=O)[C@@H](N)CS)C(N)=O [H-Cys-Ala-Phe-Glu-(allylGly)-NH2]
[1]
  ring closure, conversion by HPLC: 25%

## C=CC[C@H](NC(=O)[C@H](CCCNC(=N)N)NC(=O)[C@H](Cc1c[nH]c2ccccc12)NC(=O)[C@@H](NC(=O)[C@@H](N)CS)[C@@H](C)CC)C(N)=O [H-Cys-Ile-Trp-Arg-(allylGly)-NH2]
[1]
  ring closure, conversion by HPLC: 0%

## C=CC[C@H](NC(=O)[C@H](CCSC)NC(=O)[C@H](Cc1ccc(O)cc1)NC(=O)[C@H](CC(C)C)NC(=O)[C@@H](N)CS)C(N)=O [H-Cys-Leu-Tyr-Met-(allylGly)-NH2]
[1]
  ring closure, conversion by HPLC: 0%

## C=CC[C@H](NC(=O)[C@H](CCCCN)NC(=O)[C@@H]1CCCN1C(=O)[C@@H](NC(=O)[C@@H](N)CS)[C@@H](C)O)C(N)=O [H-Cys-Thr-Pro-Lys-(allylGly)-NH2]
[1]
  ring closure, conversion by HPLC: 0%

## CC[C@H](C)[C@@H]1NC(=O)[C@H](Cc2ccc(O)cc2)NC(=O)[C@@H](N)CCCC[C@@H](C(=O)N2CCC[C@H]2C(=O)N[C@@H](CC(C)C)C(=O)NCC(N)=O)NC(=O)[C@H](CC(N)=O)NC(=O)[C@H](CCC(N)=O)NC1=O [H-Cys-Tyr-Ile-Gln-Asn-(allylGly)-Pro-Leu-Gly-NH2]
[2]; from C=CC[C@H](NC(=O)[C@H](CC(N)=O)NC(=O)[C@H](CCC(N)=O)NC(=O)[C@@H](NC(=O)[C@H](Cc1ccc(O)cc1)NC(=O)[C@@H](N)CS)[C@@H](C)CC)C(=O)N1CCC[C@H]1C(=O)N[C@@H](CC(C)C)C(=O)NCC(N)=O, 20-membered ring
  ring closure, isolated yield: 52%

## C=CC[C@H](NC(=O)[C@H](CCC(N)=O)NC(=O)[C@H](Cc1c[nH]cn1)NC(=O)[C@@H](NC(=O)[C@@H](N)CS)C(C)C)C(N)=O [H-Cys-Val-His-Gln-(allylGly)-NH2]
[1]
  ring closure, conversion by HPLC: 0%

## CC1CC[C@@H](C(N)=O)NC(=O)[C@H](C)NC(=O)[C@H](Cc2ccccc2)NC(=O)[C@H](C)NC(=O)[C@@H](N)COC1 (stereo partly drawn) [H-Ser(O-2-methylallyl)-Ala-Phe-Ala-Cys-NH2]
[2]; from C=C(C)COC[C@H](N)C(=O)N[C@@H](C)C(=O)N[C@@H](Cc1ccccc1)C(=O)N[C@@H](C)C(=O)N[C@@H](CS)C(N)=O, 19-membered ring, 0.17 h
  ring closure, isolated yield: 77%

## C[C@@H]1NC(=O)[C@H](Cc2ccccc2)NC(=O)[C@H](C)NC(=O)[C@@H](N)COCCCC[C@@H](C(N)=O)NC1=O [H-Ser(OAllyl)-Ala-Phe-Ala-Cys-NH2]
[2]; from C=CCOC[C@H](N)C(=O)N[C@@H](C)C(=O)N[C@@H](Cc1ccccc1)C(=O)N[C@@H](C)C(=O)N[C@@H](CS)C(N)=O, 19-membered ring, 1.0 h
  ring closure, isolated yield: 78%
